Data published in ChEMBL document CHEMBL1150975, “Biochemical and three-dimensional-structural study of the specific inhibition of protein kinase CK2 by [5-oxo-5,6-dihydroindolo-(1,2-a)quinazolin-7-yl]acetic acid (IQA)” (Biochem J, 2003).

Assays:
[1] = molecular target: Insulin receptor (Homo sapiens) (UniProt P06213); experiment: Percent residual Ins-R activity in the presence of 10uM inhibitor
[2] = molecular target: Platelet-derived growth factor receptor beta (Homo sapiens) (UniProt P09619); experiment: Percent residual PDGFRbeta activity in the presence of 10uM inhibitor
Sequence of Platelet-derived growth factor receptor beta (Homo sapiens) (P09619 whole entry): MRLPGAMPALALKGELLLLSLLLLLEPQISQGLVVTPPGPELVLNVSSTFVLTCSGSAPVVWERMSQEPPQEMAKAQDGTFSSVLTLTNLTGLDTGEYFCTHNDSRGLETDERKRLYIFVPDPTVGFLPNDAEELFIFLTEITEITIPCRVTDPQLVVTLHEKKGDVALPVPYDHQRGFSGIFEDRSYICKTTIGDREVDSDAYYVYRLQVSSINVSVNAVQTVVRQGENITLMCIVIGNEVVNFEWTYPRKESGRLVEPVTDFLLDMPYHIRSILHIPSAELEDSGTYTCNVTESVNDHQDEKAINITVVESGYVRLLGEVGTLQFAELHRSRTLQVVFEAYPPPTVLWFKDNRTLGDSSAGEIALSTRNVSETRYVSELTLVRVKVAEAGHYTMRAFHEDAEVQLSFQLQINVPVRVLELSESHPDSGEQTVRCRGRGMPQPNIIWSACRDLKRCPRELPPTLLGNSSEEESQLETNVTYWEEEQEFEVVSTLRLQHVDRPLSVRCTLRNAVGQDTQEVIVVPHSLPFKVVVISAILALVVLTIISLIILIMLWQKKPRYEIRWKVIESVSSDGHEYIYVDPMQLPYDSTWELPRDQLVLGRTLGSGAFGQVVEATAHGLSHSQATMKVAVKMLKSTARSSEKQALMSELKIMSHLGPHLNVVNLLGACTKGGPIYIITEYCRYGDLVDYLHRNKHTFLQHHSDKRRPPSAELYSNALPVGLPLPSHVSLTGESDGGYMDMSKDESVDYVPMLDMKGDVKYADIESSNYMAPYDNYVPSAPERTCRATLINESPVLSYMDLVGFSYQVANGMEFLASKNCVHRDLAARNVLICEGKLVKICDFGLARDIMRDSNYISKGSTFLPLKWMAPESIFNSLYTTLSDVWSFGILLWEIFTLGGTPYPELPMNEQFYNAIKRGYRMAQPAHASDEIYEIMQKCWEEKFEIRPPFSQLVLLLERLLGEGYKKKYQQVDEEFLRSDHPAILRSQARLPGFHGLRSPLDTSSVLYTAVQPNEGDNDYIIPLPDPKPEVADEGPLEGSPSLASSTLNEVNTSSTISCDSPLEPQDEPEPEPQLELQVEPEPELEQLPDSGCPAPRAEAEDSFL

[3] = molecular target: Insulin-like growth factor 1 receptor (Homo sapiens) (UniProt P08069); experiment: Percent residual IGF-1R activity in the presence of 10uM inhibitor
Sequence of Insulin-like growth factor 1 receptor (Homo sapiens) (P08069 31-736 limits assumed): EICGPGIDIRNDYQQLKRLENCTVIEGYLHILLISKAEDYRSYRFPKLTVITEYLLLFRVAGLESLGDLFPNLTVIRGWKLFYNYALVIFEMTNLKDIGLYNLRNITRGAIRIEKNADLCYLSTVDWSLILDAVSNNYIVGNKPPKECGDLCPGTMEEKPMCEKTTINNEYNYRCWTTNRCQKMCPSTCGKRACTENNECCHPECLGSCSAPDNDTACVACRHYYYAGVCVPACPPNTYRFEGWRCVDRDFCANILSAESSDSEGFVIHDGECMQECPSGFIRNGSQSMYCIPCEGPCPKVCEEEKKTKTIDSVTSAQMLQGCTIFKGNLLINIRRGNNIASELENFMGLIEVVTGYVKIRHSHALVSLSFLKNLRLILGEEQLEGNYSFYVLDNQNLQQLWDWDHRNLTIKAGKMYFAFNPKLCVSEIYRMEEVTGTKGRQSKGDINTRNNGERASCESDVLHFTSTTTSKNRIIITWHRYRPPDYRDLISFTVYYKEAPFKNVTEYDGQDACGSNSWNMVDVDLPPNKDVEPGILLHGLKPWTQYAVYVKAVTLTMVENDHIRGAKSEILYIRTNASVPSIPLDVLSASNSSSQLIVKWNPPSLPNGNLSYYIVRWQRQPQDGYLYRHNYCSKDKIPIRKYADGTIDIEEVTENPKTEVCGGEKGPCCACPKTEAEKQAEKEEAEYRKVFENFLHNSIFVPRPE
Sequence of Insulin-like growth factor 1 receptor (Homo sapiens) (P08069 741-1367 limits assumed): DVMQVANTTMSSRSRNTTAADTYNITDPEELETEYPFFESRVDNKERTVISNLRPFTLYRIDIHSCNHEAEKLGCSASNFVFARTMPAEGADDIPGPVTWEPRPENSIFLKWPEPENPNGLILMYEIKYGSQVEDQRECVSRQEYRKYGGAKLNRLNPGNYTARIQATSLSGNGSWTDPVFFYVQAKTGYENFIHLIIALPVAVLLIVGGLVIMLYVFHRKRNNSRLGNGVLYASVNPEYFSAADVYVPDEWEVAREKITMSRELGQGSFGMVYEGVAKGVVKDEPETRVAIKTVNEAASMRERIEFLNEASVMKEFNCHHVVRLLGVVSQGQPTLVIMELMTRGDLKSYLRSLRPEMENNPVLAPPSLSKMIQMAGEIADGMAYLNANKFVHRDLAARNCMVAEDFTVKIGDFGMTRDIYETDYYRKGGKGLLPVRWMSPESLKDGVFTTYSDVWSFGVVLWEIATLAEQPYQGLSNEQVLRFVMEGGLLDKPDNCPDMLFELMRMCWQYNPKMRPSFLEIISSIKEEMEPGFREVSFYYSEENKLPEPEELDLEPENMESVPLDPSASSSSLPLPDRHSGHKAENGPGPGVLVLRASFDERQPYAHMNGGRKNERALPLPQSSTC

Sequence of Insulin receptor (Homo sapiens) (P06213 28-758 limits assumed): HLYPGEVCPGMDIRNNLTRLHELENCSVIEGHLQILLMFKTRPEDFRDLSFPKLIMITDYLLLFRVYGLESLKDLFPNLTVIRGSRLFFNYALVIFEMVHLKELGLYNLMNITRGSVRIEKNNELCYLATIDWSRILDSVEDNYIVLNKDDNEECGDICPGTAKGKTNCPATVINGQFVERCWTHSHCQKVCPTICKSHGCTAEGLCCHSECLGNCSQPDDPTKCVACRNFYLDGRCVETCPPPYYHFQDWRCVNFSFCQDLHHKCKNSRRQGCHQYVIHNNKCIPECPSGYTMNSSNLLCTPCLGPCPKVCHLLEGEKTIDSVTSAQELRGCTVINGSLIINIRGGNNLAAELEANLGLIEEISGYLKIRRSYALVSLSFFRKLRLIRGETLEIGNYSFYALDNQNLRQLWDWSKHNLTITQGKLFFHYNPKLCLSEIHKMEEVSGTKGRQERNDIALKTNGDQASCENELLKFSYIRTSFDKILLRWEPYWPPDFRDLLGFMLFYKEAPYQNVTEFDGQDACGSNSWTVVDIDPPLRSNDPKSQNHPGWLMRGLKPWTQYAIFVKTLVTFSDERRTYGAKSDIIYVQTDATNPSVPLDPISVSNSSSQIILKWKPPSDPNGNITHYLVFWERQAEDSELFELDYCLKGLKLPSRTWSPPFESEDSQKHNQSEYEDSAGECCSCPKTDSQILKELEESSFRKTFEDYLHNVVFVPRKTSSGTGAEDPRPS
Sequence of Insulin receptor (Homo sapiens) (P06213 763-1382 limits assumed): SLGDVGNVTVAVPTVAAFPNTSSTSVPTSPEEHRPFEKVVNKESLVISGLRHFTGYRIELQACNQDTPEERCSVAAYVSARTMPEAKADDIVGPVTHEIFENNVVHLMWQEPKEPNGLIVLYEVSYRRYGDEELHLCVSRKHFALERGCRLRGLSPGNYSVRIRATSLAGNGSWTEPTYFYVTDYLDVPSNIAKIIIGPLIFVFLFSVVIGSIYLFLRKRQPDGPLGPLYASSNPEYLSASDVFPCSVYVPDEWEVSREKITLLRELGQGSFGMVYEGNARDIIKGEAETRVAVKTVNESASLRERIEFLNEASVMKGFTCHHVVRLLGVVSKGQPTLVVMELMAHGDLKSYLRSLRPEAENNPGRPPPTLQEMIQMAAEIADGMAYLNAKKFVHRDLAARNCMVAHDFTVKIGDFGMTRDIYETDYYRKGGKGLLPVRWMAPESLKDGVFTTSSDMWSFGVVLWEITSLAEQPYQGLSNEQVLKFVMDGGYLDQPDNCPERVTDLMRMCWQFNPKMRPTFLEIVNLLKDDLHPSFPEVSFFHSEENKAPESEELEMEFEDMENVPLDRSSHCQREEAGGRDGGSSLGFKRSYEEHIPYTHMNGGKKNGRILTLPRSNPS

Activity [1]: 80% | Activity [2]: 80% | Activity [3]: 80%
SMILES: O=C(O)Cc1c2ccccc2n2c1[nH]c(=O)c1ccccc12
